Results published in patent US20230233569A1 (Revolution Medicines, Inc., priority 2020, published 2023).
“And” between values parts separate entries of the source, which are not always exact repeats. Identical values can stand only once. Like-named read-outs stand apart in the source and are kept apart here.

Experiments:
Experiment in all cases: Disruption of BRAF RBD interaction with Ras (FRET / MOA assay, with Cyclophilin A)
Assay type in all cases: biochemical
KRAS G12D = KRAS G12D (Homo sapiens, UniProt P01116+P62937, G12D); details: read-out: KRAS G12D FRET data, IC50
From the text: (§1) This protocol may also be executed substituting other Ras proteins or nucleotides.
(§2) The purpose of this biochemical assay was to measure the ability of test compounds to facilitate ternary complex formation between a nucleotide-loaded K-Ras isoform and Cyclophilin A; the resulting ternary complex disrupts binding to a BRAF^RBD construct, inhibiting K-Ras signaling through a RAF effector. Data is reported as IC50 values.
(§3) Compound was present in plate wells as a 10-point 3-fold dilution series starting at a final concentration of 30 μM. After incubation at 25° C. for 3 hours, a mixture of Anti-His Eu-W1024 and anti-GST allophycocyanin was then added to assay sample wells at final concentrations of 10 nM and 50 nM, respectively, and the reaction incubated for an additional 1.5 hours. […] Compounds that facilitate disruption of a K-Ras:RAF complex were identified as those eliciting a decrease in the TR-FRET ratio relative to DMSO control wells.
as §2, with “BRAF^RBDD” for “BRAF^RBD”

KRAS G13C = KRAS G13C (Homo sapiens, UniProt P01116+P62937, G13C)
From the text: as §1, §2, §3
as §2, with “BRAF^RBDD” for “BRAF^RBD”

KRAS G12V = KRAS G12V (Homo sapiens, UniProt P01116+P62937, G12V); details: KRAS G12V; read-out: KRAS G12V FRET data IC50
From the text: as §1, §2, §3
as §2, with “BRAF^RBDD” for “BRAF^RBD”

KRAS G12C = KRAS G12C (Homo sapiens, UniProt P01116+P62937, G12C); details: KRAS G12C; read-out: KRAS G12C FRET data IC50
From the text: as §1, §2, §3
as §2, with “BRAF^RBDD” for “BRAF^RBD”

KRAS G12S = KRAS G12S (Homo sapiens, UniProt P01116+P62937, G12S); details: read-out: KRAS G12S FRET data, IC50
From the text: as §1, §2, §3
as §2, with “BRAF^RBDD” for “BRAF^RBD”

KRAS WT = KRAS WT (Homo sapiens, UniProt P01116+P62937); details: KRAS WT; read-out: KRAS WT FRET data IC50
From the text: as §1, §2, §3
as §2, with “BRAF^RBDD” for “BRAF^RBD”

[1] = KRAS G13C, read-out: KRAS G13C FRET data IC50

Chain of KRAS G12S (P01116 1-169 isoform P01116-2 G12S limits assumed): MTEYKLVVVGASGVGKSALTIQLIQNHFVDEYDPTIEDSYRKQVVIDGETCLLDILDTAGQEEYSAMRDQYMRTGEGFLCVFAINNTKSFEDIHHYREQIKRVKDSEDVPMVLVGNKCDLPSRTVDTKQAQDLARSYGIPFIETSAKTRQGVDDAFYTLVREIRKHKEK
Chain of KRAS G12S (P62937 whole entry): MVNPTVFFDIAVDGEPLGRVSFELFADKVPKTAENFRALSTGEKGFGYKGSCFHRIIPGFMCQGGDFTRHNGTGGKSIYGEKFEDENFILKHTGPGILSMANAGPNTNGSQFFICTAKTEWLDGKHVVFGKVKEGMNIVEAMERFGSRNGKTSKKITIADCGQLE
Chain of KRAS G13C (P01116 1-169 isoform P01116-2 G13C): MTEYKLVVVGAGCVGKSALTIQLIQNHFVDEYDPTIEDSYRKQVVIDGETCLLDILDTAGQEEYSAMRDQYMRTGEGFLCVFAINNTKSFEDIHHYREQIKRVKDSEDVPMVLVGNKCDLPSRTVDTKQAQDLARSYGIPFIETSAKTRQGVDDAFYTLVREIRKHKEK
Chain of KRAS G13C (P62937 whole entry): as the sequence (P62937 whole entry) above
Chain of KRAS G12C (P01116 1-169 isoform P01116-2 G12C): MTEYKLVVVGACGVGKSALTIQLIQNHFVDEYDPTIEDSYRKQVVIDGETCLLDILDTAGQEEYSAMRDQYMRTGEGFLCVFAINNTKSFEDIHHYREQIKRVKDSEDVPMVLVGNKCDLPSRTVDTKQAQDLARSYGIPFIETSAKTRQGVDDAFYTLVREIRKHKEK
Chain of KRAS G12C (P62937 whole entry): as the sequence (P62937 whole entry) above
Chain of KRAS G12D (P01116 1-169 isoform P01116-2 G12D limits assumed): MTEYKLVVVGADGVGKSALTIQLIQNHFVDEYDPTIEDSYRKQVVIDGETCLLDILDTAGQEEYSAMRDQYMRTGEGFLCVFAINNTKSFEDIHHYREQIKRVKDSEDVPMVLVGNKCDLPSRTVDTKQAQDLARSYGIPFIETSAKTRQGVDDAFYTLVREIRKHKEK
Chain of KRAS G12D (P62937 whole entry): as the sequence (P62937 whole entry) above
Chain of KRAS WT (P01116 1-169 isoform P01116-2 limits assumed): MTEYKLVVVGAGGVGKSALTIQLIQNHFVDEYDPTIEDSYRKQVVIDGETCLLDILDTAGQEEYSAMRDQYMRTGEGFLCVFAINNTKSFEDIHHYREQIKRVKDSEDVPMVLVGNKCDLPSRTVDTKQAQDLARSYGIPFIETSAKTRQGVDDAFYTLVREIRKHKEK
Chain of KRAS WT (P62937 whole entry): as the sequence (P62937 whole entry) above
Chain of KRAS G12V (P01116 1-169 isoform P01116-2 G12V limits assumed): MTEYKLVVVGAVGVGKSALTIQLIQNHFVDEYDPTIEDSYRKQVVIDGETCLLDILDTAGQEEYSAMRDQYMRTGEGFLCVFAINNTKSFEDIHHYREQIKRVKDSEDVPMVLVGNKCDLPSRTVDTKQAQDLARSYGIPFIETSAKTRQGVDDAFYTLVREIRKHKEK
Chain of KRAS G12V (P62937 whole entry): as the sequence (P62937 whole entry) above

Compound	IC50 (KRAS G12D) [µM]	IC50 (KRAS G13C; [1])	IC50 (KRAS G12V)	IC50 (KRAS G12C)	IC50 (KRAS G12S)	IC50 (KRAS WT)	IC50 (KRAS G13C; read-out: KRAS G13C FRET data, IC50) [µM]
C=CC(=O)N1CC[C@H](C(=O)N(C)[C@H](C(=O)N[C@H]2Cc3cc(O)cc(c3)-c3ccc4c(c3)c(c(-c3ccc(CC(=O)O)cc3)n4CC)CC(C)(C)COC(=O)[C@@H]3CCCN(N3)C2=O)C(C)C)C1 [Example A021]	> 10	> 10 µM	> 10 µM	1 to 10 µM	> 10 µM	> 10 µM	
C=CC(=O)N1CC[C@H](C(=O)N(C)[C@H](C(=O)N[C@H]2Cc3cc(O)cc(c3)-c3ccc4c(c3)c(c(-c3ccccc3[C@@H](C)OC)n4CC)CC(C)(C)COC(=O)[C@@H]3CCCN(N3)C2=O)C(C)C)C1 [Example A029]	1 to 10	0.1 to 1 µM	0.1 to 1 µM	0.01 to 0.1 µM	0.1 to 1 µM	0.1 to 1 µM	
C=CC(=O)N1CC[C@H](C(=O)N(C)[C@H](C(=O)N[C@H]2Cc3cc(O)cc(c3)-c3ccc4c(c3)c(c(-c3cccc(CN(C)C)c3)n4CC)CC(C)(C)COC(=O)[C@@H]3CCCN(N3)C2=O)C(C)C)C1 [Example A030]	> 10	1 to 10 µM	1 to 10 µM	0.1 to 1 µM	1 to 10 µM	1 to 10 µM	
C=CC(=O)N1CC2(CCN([C@H](C(=O)N[C@H]3Cc4cc(O)cc(c4)-c4ccc5c(c4)c(c(-c4ccccc4CCOC)n5CC)CC(C)(C)COC(=O)[C@@H]4CCCN(N4)C3=O)C(C)C)C2=O)C1 [Example A031]	> 10	0.01 to 0.1 µM	1 to 10 µM	0.01 to 0.1 µM	1 to 10 µM	1 to 10 µM	
C=CC(=O)N1CC[C@H](C(=O)N(C)[C@H](C(=O)N[C@H]2Cc3cc(OC(=O)CCC(=O)O)cc(c3)-c3ccc4c(c3)c(c(-c3ccccc3CCOC)n4CC)CC(C)(C)COC(=O)[C@@H]3CCCN(N3)C2=O)C(C)C)C1 [Example A032]	> 10	1 to 10 µM and > 10 µM	1 to 10 µM and > 10 µM	0.01 to 0.1 µM and 1 to 10 µM	0.1 to 1 µM and > 10 µM	1 to 10 µM and > 10 µM	
C=CC(=O)N1CCC(C(=O)N(C)[C@H](C(=O)N[C@H]2Cc3cc(O)cc(c3)-c3ccc4c(c3)c(c(-c3ccccc3CN(C)C)n4CC)CC(C)(C)COC(=O)[C@@H]3CCCN(N3)C2=O)C(C)C)CC1 [Example A033]	> 10	0.1 to 1 µM	> 10 µM	0.1 to 1 µM	1 to 10 µM	1 to 10 µM	
C=CC(=O)N1CC[C@H](C(=O)N(C)[C@H](C(=O)N[C@H]2Cc3cc(O)cc(c3)-c3ccc4c(c3)c(c(-c3ccccc3CCOC)n4C(C)(C)C#N)CC(C)(C)COC(=O)[C@@H]3CCCN(N3)C2=O)C(C)C)C1 [Example A034]	1 to 10	1 to 10 µM	0.1 to 1 µM	0.1 to 1 µM	0.1 to 1 µM	1 to 10 µM	
C=CC(=O)N1CC[C@H](C(=O)N(C)[C@H](C(=O)N[C@H]2Cc3cc(O)cc(c3)-c3ccc4c(c3)c(c(-c3ccc5cc(CN(C)C)n(C)c5c3)n4CC)CC(C)(C)COC(=O)[C@@H]3CCCN(N3)C2=O)C(C)C)C1 [Example A035]	> 10	1 to 10 µM	1 to 10 µM	0.1 to 1 µM	1 to 10 µM	1 to 10 µM	
C=CC(=O)N1CC[C@H](C(=O)N(C)[C@H](C(=O)N[C@H]2Cc3cc(O)cc(c3)-c3ccc4c(c3)c(c(-c3ccc(N5CCN(C)CC5)nc3)n4CC)CC(C)(C)COC(=O)[C@@H]3CCCN(N3)C2=O)C(C)C)C1 [Example A089]	> 10						
C=CC(=O)N1CC[C@H](C(=O)N(C)[C@H](C(=O)N[C@H]2Cc3cc(O)cc(c3)-c3ccc4c(c3)c(c(-c3cnccc3[C@H](C)OC)n4CC)CC(C)(C)COC(=O)[C@@H]3CCCN(N3)C2=O)C(C)C)C1 [Example A112]				< 0.01 µM			
CCn1c(-c2cccnc2[C@H](C)OC)c2c3cc(ccc31)-c1csc(n1)C[C@H](NC(=O)[C@H](C(C)C)N(C)C(=O)O[C@H]1CCN(C)C1)C(=O)N1CCC[C@H](N1)C(=O)OCC(C)(C)C2 [Example A173]							1 to 10
